Converted amounts (≈) assume the structure as drawn.

The first assay has as its system Mannheimia haemolytica MH 6357 (M7/2, reference strain, cattle infection strain). Briefly: MIC, broth-microdilution (CLSI VET01-A4), strain MH 6357. The class given is cell-based. To be noted: Mannheimia haemolytica strain MH 6357, broth-microdilution; unit assumed. The gist of the method: (§1)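 Growth inhibition is scored visually on a doubling dilution series. The reported MIC corresponds to the lowest concentration free of turbidity, with results assessed under CLSI VET01-S3.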
As to `CC(=O)[C@H](NC(=O)c1ccc(C#Cc2ccc(CNCc3ccc(C)cc3)cc2)cc1)C(=O)NO` [Compound 412], the MIC MH 6357 worked out at 1.6 µg/mL (≈ 3.41 µM).
On the same count and under the same terms, the result for `CSC(C)(C)[C@H](NC(=O)c1ccc(C#Cc2ccc(CNCc3ccco3)nc2)cc1)C(=O)NO` [Compound 344] reads 0.4 µg/mL (≈ 0.812 µM); that for `Cc1cnc(CNCc2ccc(C#Cc3ccc(C(=O)N[C@H](C(=O)NO)C(C)(C)O)cc3)cn2)o1` [Compound 334], 0.4 µg/mL (≈ 0.838 µM).
In turn, `C=CCNCc1ccc(C#Cc2ccc(C(=O)N[C@H](C(=O)NO)C(C)(C)S(C)(=O)=O)cc2)cc1` [C.256] came in with an MIC MH 6357 of 1.6 µg/mL (≈ 3.31 µM).

The next assay deals with Mannheimia haemolytica MH 6374 (ATCC 33396, reference strain). Nature of the assay: MIC, broth-microdilution (CLSI VET01-A4), strain MH 6374. The class given is cell-based. The conditions noted are these: Mannheimia haemolytica strain MH 6374, broth-microdilution; unit assumed. The gist of the method: as §1
Background: Broth dilution looks for growth in wells or tubes with falling amounts of substance.
Take `CC(=O)[C@H](NC(=O)c1ccc(C#Cc2ccc(CNCc3ccc(C)cc3)cc2)cc1)C(=O)NO` [Compound 412]: the MIC MH 6374 was found to be 1.6 µg/mL (≈ 3.41 µM).
`CSC(C)(C)[C@H](NC(=O)c1ccc(C#Cc2ccc(CNCc3ccco3)nc2)cc1)C(=O)NO` [Compound 344] registered an MIC MH 6374 of 0.8 µg/mL (≈ 1.62 µM).
On the same count and under the same terms, the value for `Cc1cnc(CNCc2ccc(C#Cc3ccc(C(=O)N[C@H](C(=O)NO)C(C)(C)O)cc3)cn2)o1` [Compound 334] was 0.4 µg/mL (≈ 0.838 µM); that for `C=CCNCc1ccc(C#Cc2ccc(C(=O)N[C@H](C(=O)NO)C(C)(C)S(C)(=O)=O)cc2)cc1` [C.256] was 0.8 µg/mL (≈ 1.65 µM).

A further assay relates to Mannheimia haemolytica MH 10720 (154, BRD field isolate). Briefly: MIC, broth-microdilution (CLSI VET01-A4), strain MH 10720. The conditions noted are these: Mannheimia haemolytica strain MH 10720, broth-microdilution; unit assumed. The assay is classed as cell-based. In a few lines: as §1
Take `CC(=O)[C@H](NC(=O)c1ccc(C#Cc2ccc(CNCc3ccc(C)cc3)cc2)cc1)C(=O)NO` [Compound 412]: the MIC MH 10720 amounted to 1.6 µg/mL (≈ 3.41 µM).
Still for that read-out and setting: the result for `CSC(C)(C)[C@H](NC(=O)c1ccc(C#Cc2ccc(CNCc3ccco3)nc2)cc1)C(=O)NO` [Compound 344] reads no more than 0.1 µg/mL.
The same measure, in the same setting: the result for `Cc1cnc(CNCc2ccc(C#Cc3ccc(C(=O)N[C@H](C(=O)NO)C(C)(C)O)cc3)cn2)o1` [Compound 334] reads no more than 0.1 µg/mL.
`C=CCNCc1ccc(C#Cc2ccc(C(=O)N[C@H](C(=O)NO)C(C)(C)S(C)(=O)=O)cc2)cc1` [C.256]: the MIC MH 10720 is no more than 0.1 µg/mL.

A further assay deals with Mannheimia haemolytica MH 12587 (1071, BRD field isolate, macrolide-resistance: erm+, E+). Briefly: MIC, broth-microdilution (CLSI VET01-A4), strain MH 12587. The assay is classed as cell-based. The conditions noted are these: Mannheimia haemolytica strain MH 12587, broth-microdilution; unit assumed. The gist of the method:
as §1
`CC(=O)[C@H](NC(=O)c1ccc(C#Cc2ccc(CNCc3ccc(C)cc3)cc2)cc1)C(=O)NO` [Compound 412] had an MIC MH 12587 of 0.4 µg/mL (≈ 0.852 µM).
Same read-out and setting: the value for `CSC(C)(C)[C@H](NC(=O)c1ccc(C#Cc2ccc(CNCc3ccco3)nc2)cc1)C(=O)NO` [Compound 344] was 1.6 µg/mL (≈ 3.25 µM).
With `Cc1cnc(CNCc2ccc(C#Cc3ccc(C(=O)N[C@H](C(=O)NO)C(C)(C)O)cc3)cn2)o1` [Compound 334], the MIC MH 12587 was 1.6 µg/mL (≈ 3.35 µM).
On the same count and under the same terms, the result for `C=CCNCc1ccc(C#Cc2ccc(C(=O)N[C@H](C(=O)NO)C(C)(C)S(C)(=O)=O)cc2)cc1` [C.256] reads 1.6 µg/mL (≈ 3.31 µM).

The subject of another assay is Mannheimia haemolytica MH 13065 (XB0446-6003.9, BRD field isolate). Nature of the assay: MIC, broth-microdilution (CLSI VET01-A4), strain MH 13065. The assay is classed as cell-based. The conditions noted are these: Mannheimia haemolytica strain MH 13065, broth-microdilution; unit assumed. In a few lines: as §1
As for `CC(=O)[C@H](NC(=O)c1ccc(C#Cc2ccc(CNCc3ccc(C)cc3)cc2)cc1)C(=O)NO` [Compound 412], the MIC MH 13065 came out at 1.6 µg/mL (≈ 3.41 µM).
Still for that read-out and setting: the result for `CSC(C)(C)[C@H](NC(=O)c1ccc(C#Cc2ccc(CNCc3ccco3)nc2)cc1)C(=O)NO` [Compound 344] reads 0.8 µg/mL (≈ 1.62 µM).
The same measure, in the same setting: the value for `Cc1cnc(CNCc2ccc(C#Cc3ccc(C(=O)N[C@H](C(=O)NO)C(C)(C)O)cc3)cn2)o1` [Compound 334] was 0.8 µg/mL (≈ 1.68 µM); that for `C=CCNCc1ccc(C#Cc2ccc(C(=O)N[C@H](C(=O)NO)C(C)(C)S(C)(=O)=O)cc2)cc1` [C.256] was 0.8 µg/mL (≈ 1.65 µM).

A further assay concerns Mannheimia haemolytica MH 13093 (XB0472-6014.1, BRD field isolate). Briefly: MIC, broth-microdilution (CLSI VET01-A4), strain MH 13093. The conditions noted are these: Mannheimia haemolytica strain MH 13093, broth-microdilution; unit assumed. The class given is cell-based. In a few lines:
as §1
`CC(=O)[C@H](NC(=O)c1ccc(C#Cc2ccc(CNCc3ccc(C)cc3)cc2)cc1)C(=O)NO` [Compound 412] displayed an MIC MH 13093 of 1.6 µg/mL (≈ 3.41 µM).
Still for that read-out and setting: the value for `CSC(C)(C)[C@H](NC(=O)c1ccc(C#Cc2ccc(CNCc3ccco3)nc2)cc1)C(=O)NO` [Compound 344] was 1.6 µg/mL (≈ 3.25 µM); that for `Cc1cnc(CNCc2ccc(C#Cc3ccc(C(=O)N[C@H](C(=O)NO)C(C)(C)O)cc3)cn2)o1` [Compound 334] was 1.6 µg/mL (≈ 3.35 µM).
Same read-out and setting: the result for `C=CCNCc1ccc(C#Cc2ccc(C(=O)N[C@H](C(=O)NO)C(C)(C)S(C)(=O)=O)cc2)cc1` [C.256] reads 0.8 µg/mL (≈ 1.65 µM).

The test system of the next assay is Pasteurella multocida PM 6267 (P 2225 (L386), reference strain, mouse infection strain). Briefly: MIC, broth-microdilution (CLSI VET01-A4), strain PM 6267. The assay is classed as cell-based. The conditions noted are these: Pasteurella multocida strain PM 6267, broth-microdilution; unit assumed. In a few lines:
as §1
`CC(=O)[C@H](NC(=O)c1ccc(C#Cc2ccc(CNCc3ccc(C)cc3)cc2)cc1)C(=O)NO` [Compound 412] had an MIC PM 6267 of 6.3 µg/mL (≈ 13.4 µM).
On the same count and under the same terms, the result for `CSC(C)(C)[C@H](NC(=O)c1ccc(C#Cc2ccc(CNCc3ccco3)nc2)cc1)C(=O)NO` [Compound 344] reads 0.8 µg/mL (≈ 1.62 µM).
On the same count and under the same terms, the value for `Cc1cnc(CNCc2ccc(C#Cc3ccc(C(=O)N[C@H](C(=O)NO)C(C)(C)O)cc3)cn2)o1` [Compound 334] was 0.4 µg/mL (≈ 0.838 µM).
With `C=CCNCc1ccc(C#Cc2ccc(C(=O)N[C@H](C(=O)NO)C(C)(C)S(C)(=O)=O)cc2)cc1` [C.256], the MIC PM 6267 was no more than 0.1 µg/mL.

The next assay concerns Pasteurella multocida PM 6391 (ATCC 43137, reference strain). Nature of the assay: MIC, broth-microdilution (CLSI VET01-A4), strain PM 6391. The class given is cell-based. To be noted: Pasteurella multocida strain PM 6391, broth-microdilution; unit assumed. The gist of the method: as §1
On to `CC(=O)[C@H](NC(=O)c1ccc(C#Cc2ccc(CNCc3ccc(C)cc3)cc2)cc1)C(=O)NO` [Compound 412], for which the MIC PM 6391 is no more than 0.1 µg/mL.
The same measure, in the same setting: the result for `CSC(C)(C)[C@H](NC(=O)c1ccc(C#Cc2ccc(CNCc3ccco3)nc2)cc1)C(=O)NO` [Compound 344] reads 0.8 µg/mL (≈ 1.62 µM); that for `Cc1cnc(CNCc2ccc(C#Cc3ccc(C(=O)N[C@H](C(=O)NO)C(C)(C)O)cc3)cn2)o1` [Compound 334], 0.4 µg/mL (≈ 0.838 µM).
Still for that read-out and setting: the result for `C=CCNCc1ccc(C#Cc2ccc(C(=O)N[C@H](C(=O)NO)C(C)(C)S(C)(=O)=O)cc2)cc1` [C.256] reads no more than 0.1 µg/mL.

A further assay relates to Pasteurella multocida PM 10775 (080130003051, BRD field isolate). Nature of the assay: MIC, broth-microdilution (CLSI VET01-A4), strain PM 10775. The class given is cell-based. The conditions noted are these: Pasteurella multocida strain PM 10775, broth-microdilution; unit assumed. The gist of the method: as §1
As for `CC(=O)[C@H](NC(=O)c1ccc(C#Cc2ccc(CNCc3ccc(C)cc3)cc2)cc1)C(=O)NO` [Compound 412], the MIC PM 10775 turned out to be 0.4 µg/mL (≈ 0.852 µM).
For the compound `CSC(C)(C)[C@H](NC(=O)c1ccc(C#Cc2ccc(CNCc3ccco3)nc2)cc1)C(=O)NO` [Compound 344], the MIC PM 10775 was no more than 0.1 µg/mL.
The same measure, in the same setting: the value for `Cc1cnc(CNCc2ccc(C#Cc3ccc(C(=O)N[C@H](C(=O)NO)C(C)(C)O)cc3)cn2)o1` [Compound 334] was no more than 0.1 µg/mL; that for `C=CCNCc1ccc(C#Cc2ccc(C(=O)N[C@H](C(=O)NO)C(C)(C)S(C)(=O)=O)cc2)cc1` [C.256] was no more than 0.1 µg/mL.

For the next assay, the system named is Pasteurella multocida PM 12080 (IV102277-0093, BRD field isolate). Briefly: MIC, broth-microdilution (CLSI VET01-A4), strain PM 12080. The conditions noted are these: Pasteurella multocida strain PM 12080, broth-microdilution; unit assumed. The class given is cell-based. The gist of the method: as §1
Regarding `CC(=O)[C@H](NC(=O)c1ccc(C#Cc2ccc(CNCc3ccc(C)cc3)cc2)cc1)C(=O)NO` [Compound 412], the MIC PM 12080 was 0.2 µg/mL (≈ 0.426 µM).
`CSC(C)(C)[C@H](NC(=O)c1ccc(C#Cc2ccc(CNCc3ccco3)nc2)cc1)C(=O)NO` [Compound 344] came in with an MIC PM 12080 of 0.4 µg/mL (≈ 0.812 µM).
Consider `Cc1cnc(CNCc2ccc(C#Cc3ccc(C(=O)N[C@H](C(=O)NO)C(C)(C)O)cc3)cn2)o1` [Compound 334], for which the MIC PM 12080 was 0.2 µg/mL (≈ 0.419 µM).
The compound `C=CCNCc1ccc(C#Cc2ccc(C(=O)N[C@H](C(=O)NO)C(C)(C)S(C)(=O)=O)cc2)cc1` [C.256] came in with an MIC PM 12080 of no more than 0.1 µg/mL.

(Values after patent US11034650B2, “Compounds useful for treating a Mannheimia haemolytica or Histophilus somni infection” (Intervet Inc., priority 2016, dated 2021).)
